“Also recorded” adds a separate entry of the source. Blank lines part the entries; values can stand above or below the compound they belong to.
What was measured:
[1] = Preclinical bioavailability and pharmacokinetics; assay type: in vivo
Method: Preclinical studies of K-80003 were performed, including the investigation of toxicity, bioavailability, and pharmacokinetics.

[2] = test system: prostaglandin E2 (PGE2) production; experiment: PGE2 production in A549 cells; assay type: cell-based, human
Method: A549 cells were seeded in 24-well plates in DMEM with 10% fetal bovine serum. After overnight culture, cells were stimulated with 10 ng/ml IL-1β in DMEM medium without serum for 24 hr. After 10 min pretreatment with the indicated concentrations of Sulindac or analog, cells were co-treated with 10 μM arachidonic acid and Sulindac or its analog for 30 min at 37° C. Medium was collected and immediately assayed. PGE2 production was measured with Prostaglandin E2 EIA Kit-Monoclonal according to the manufacturer's instructions (Cayman Chemical, Ann Arbor, Mich.). PGE2 production (%) is expressed as the ratio of PGE2 produced in the presence of compound to that with vehicle alone.

[3] = molecular target: T1, interaction of p85α with RXRα/Δ80 (Homo sapiens, UniProt P19793); experiment: Co-immunoprecipitation of Flag-p85α and Myc-RXRα/Δ80 in A549 cells; assay type: cell-based; conditions: 50 μM, with or without TNFα
T1 construct: expressed in transfected cells; host or cells: A549 human lung cancer cells
T1 sequence (P19793 81-462 limits assumed, stated change not applied): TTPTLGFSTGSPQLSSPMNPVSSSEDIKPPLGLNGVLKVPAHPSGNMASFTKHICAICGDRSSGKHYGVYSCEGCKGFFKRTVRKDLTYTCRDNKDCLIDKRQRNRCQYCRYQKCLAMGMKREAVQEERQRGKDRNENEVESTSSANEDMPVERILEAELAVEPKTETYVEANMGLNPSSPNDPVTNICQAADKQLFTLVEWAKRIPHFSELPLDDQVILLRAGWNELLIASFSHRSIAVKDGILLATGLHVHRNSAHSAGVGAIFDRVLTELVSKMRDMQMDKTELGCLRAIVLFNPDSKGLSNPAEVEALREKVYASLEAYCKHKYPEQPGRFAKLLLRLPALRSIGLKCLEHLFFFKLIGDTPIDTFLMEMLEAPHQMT
Method: Caco-2 and MEF cells were treated with the indicated concentration of Sulindac or K-80003 for 30 min, then stimulated with all-trans-RA (10^-7 M) for 15 min. AKT activation was analyzed by immunoblotting. PC3 cells transfected with RXRα or RARγ siRNA were pre-treated with K-80003 (50 μM) for 1 hr before exposed to TNFα (10 ng/ml) for 30 min (pRXRα: phosphorylated RXRα). A549 cells were transfected with Flag-p85α and Myc-RXRα/[…], treated with Sulindac (50 μM) or K-80003 (50 μM) for 1 hr, exposed to TNFα for 30 min, and analyzed by coimmunoprecipitation using an anti-Flag antibody. […] (FIG. 8C). Reducing RXRα expression by siRNA largely impaired the inhibitory effect of K-80003 on AKT activation in PC3 cells. […] Thus, inhibition of AKT activation by K-80003 was also dependent on RXRα expression (FIG. 8B). For the CoIP assay, cells or cells transfected with indicated expression vectors were suspended in lysis buffer (50 mM Tris-HCl, pH 7.4; 150 mM NaCl; 20 mM EDTA; 1% NP-40; 1 mM PMSF; […] Leupeptin; […] Aprotinin; 0.1 mM Na3VO4; and 1 mM DTT). […] Immunoreactive products were detected by chemiluminescence with an enhanced chemiluminescence system (ECLTM) (Amersham Biosciences, Amersham, UK).

RXRα/PPARγ heterodimer = molecular target: T2, RXRα/PPARγ heterodimer (Homo sapiens, UniProt P19793); experiment: DR1 tk-CAT reporter assay in CV-1 cells; assay type: cell-based; conditions: ciglitazone 10^−6 M
T2 construct: expressed in transfected cells; host or cells: CV-1 green monkey kidney cells
T2 sequence (P19793 whole entry): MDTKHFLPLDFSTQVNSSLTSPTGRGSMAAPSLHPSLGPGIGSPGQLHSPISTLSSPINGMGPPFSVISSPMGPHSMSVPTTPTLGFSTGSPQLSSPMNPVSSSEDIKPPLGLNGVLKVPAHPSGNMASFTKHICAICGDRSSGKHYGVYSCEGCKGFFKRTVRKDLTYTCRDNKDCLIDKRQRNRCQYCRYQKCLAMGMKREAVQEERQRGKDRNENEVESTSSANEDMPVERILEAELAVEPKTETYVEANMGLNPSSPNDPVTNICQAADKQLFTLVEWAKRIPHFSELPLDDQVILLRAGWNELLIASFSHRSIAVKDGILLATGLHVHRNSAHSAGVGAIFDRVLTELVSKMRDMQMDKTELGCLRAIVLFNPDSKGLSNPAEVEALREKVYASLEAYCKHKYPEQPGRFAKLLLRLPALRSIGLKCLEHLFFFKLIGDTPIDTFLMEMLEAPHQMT
T2 sequence (P37231 whole entry partner): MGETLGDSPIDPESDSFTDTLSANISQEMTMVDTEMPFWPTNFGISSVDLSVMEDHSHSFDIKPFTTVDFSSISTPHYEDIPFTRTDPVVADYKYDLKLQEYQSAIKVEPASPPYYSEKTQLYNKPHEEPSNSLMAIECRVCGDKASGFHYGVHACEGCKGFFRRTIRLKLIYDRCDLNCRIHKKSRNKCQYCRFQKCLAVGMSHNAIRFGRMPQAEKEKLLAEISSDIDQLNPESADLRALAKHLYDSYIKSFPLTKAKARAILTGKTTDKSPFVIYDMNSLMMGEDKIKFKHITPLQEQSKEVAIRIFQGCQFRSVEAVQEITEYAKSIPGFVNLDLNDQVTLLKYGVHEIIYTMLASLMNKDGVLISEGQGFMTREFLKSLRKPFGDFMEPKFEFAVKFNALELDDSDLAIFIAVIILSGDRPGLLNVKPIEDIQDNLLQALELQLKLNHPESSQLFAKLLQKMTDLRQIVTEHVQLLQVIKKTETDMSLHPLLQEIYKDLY
Method: Receptor expression vectors and a reporter gene (TREpal2-tk-CAT for RXRα/TRα heterodimers (FIG. 9C), and DR1 tk-CAT for RXRα/PPARγ heterodimer (FIG. 9B)) were transiently transfected into CV-1 cells. Cells were treated with or without ligands (ciglitazone, 10^−6 M; T3, 10^−7 M) in the presence or absence of Sulindac. CAT activity was determined.
Cells (1×10^5 cells/well) seeded in 24-well plates were transiently transfected using a modified calcium phosphate precipitation procedure as described (Kolluri, S. K. et al., Proc Natl Acad Sci USA 102 (7), 2525-2530 (2005); Cao, X., et al., Mol Cell Biol 24(22), 9705-9725 (2004)).

COX = conditions: Haanen, 2001; cited from earlier work
[4] = test system: interaction of p85α with tRXRα and/or RXRα; experiment: Co-immunoprecipitation with ΔN197 anti-RXRα antibody; assay type: cell-based; conditions: TNFα-enhanced
Method: RXRα interaction with p85α was examined. Anti-RXRα […]antibodies (Santa Cruz Biotechnology, Santa Cruz, Calif.) were used in co-immunoprecipitation (Co-IP) and Western blotting (WB) assays. BHK cells were treated with ATRA (10^−7 M) for 30 min. Lysates were prepared and analyzed for RXRα-p85α interaction using either D20 anti-RXRα or ΔN197 anti-RXRα antibody (FIG. 12D).
For the CoIP assay, cells or cells transfected with indicated expression vectors were suspended in lysis buffer (50 mM Tris-HCl, pH 7.4; 150 mM NaCl; 20 mM EDTA; 1% NP-40; 1 mM PMSF; […] Leupeptin; […] Aprotinin; 0.1 mM Na3VO4; and 1 mM DTT). Cell extracts were cleared by incubation with the Protein A/G plus Agarose beads (Santa Cruz Biotechnology, Santa Cruz, Calif.) and then incubated with appropriate antibody and […] of Protein A or G plus Agarose beads overnight at 4° C. Beads were then washed and boiled in Laemmli gel-loading solution before performing SDS-PAGE/immunoblotting using polyclonal or monoclonal antibodies. Immunoreactive products were detected by chemiluminescence with an enhanced chemiluminescence system (ECL™) (Amersham Biosciences, Amersham, UK).

RXRα LBD = RXRα LBD (Homo sapiens, UniProt P19793); experiment: Proteolytic protection assay (chymotrypsin sensitivity); assay type: binding; conditions: 100 μM
Chain of RXRα LBD (P19793 227-458 limits assumed): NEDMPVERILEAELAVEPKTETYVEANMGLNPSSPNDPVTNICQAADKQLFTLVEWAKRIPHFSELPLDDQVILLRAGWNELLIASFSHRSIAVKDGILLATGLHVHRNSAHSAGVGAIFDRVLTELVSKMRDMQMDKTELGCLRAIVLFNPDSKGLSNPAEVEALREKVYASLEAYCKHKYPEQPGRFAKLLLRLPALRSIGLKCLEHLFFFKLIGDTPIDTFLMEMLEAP
Method: Altered sensitivity of RXRα ligand-binding domain (LBD) to chymotrypsin (ug/ml) by Sulindac (100 μM) (FIG. 1C) and differential scanning calorimetry (DSC) scans comparing ^19F NMR spectra of Sulindac (100 μM) in the absence and presence of 10 μM RXRα LBD or Nur77 protein (FIG. 1D) were also determined. Binding to RXRα was confirmed by altered sensitivity of RXRα to chymotrypsin digestion by Sulindac (FIG. 1C) and differential scanning calorimetry (DSC) (FIG. 1D). In addition, inhibition of SR11237 (10^−6 M)-activated RXRα transactivation by Sulindac was measured (FIG. 1F, see Example 2).
RXRα LBD was synthesized by in vitro transcription-translation using rabbit reticulocyte lysates (Promega, Fitchburg, Wis.) as described previously (Kolluri, S. K. et al., Proc Natl Acad Sci USA 102 (7), 2525-2530 (2005); Zhang, X. K. et al., Nature 355 (6359), 441-446 (1992); Zhang, X.-K. et al., Nature. 358 (6387), 587-591 (1992)). In vitro translated ^35[S]methionine labeled RXRα-LBD was preincubated with solvent (1% DMSO), Sulindac (100 μM) or 9-cis-RA (10^−7 M) for 30 min. and then digested with indicated concentration of chymotrypsin. Digested fragments were separated by PAGE.

PK profiles ([1]; preclinical study): desirable PK profiles
Compound: CC1=C(CC(=O)O)c2cc(F)ccc2/C1=C\c1ccc(C(C)C)cc1 [K-80003, (Z)-2-(3-(4-Iso-propylbenzylidene)-6-fluoro-2-methyl-3H-inden-1-yl)acetic acid]
bioavailability ([1]; oral compared to intravenous formulation): increased bioavailaility in oral compared to intravenous formulation
inhibition of constitutive and TNFα- or IL-1β-induced PGE2 production [2]: failed to inhibit; also recorded: did not inhibit
inhibition of interaction of p85α with RXRα/Δ80 [3]: much more effective than Sulindac; also recorded: potently inhibited

Compound: CSc1ccc(/C=C2/C(C)=C(CC(=O)O)c3cc(F)ccc32)cc1 [Sulindac, (Z)-2-(3-(4-(Methylthio)benzylidene)-6-fluoro-2-methyl-3H-inden-1-yl)acetic acid]
transactivation of RXRα/PPARγ heterodimers (CAT activity) (RXRα/PPARγ heterodimer): inhibited transactivation
COX-inhibiting activity (COX): potent COX inhibitor
interaction of p85α with tRXRα and/or RXRα [4]: inhibited
binding to RXRα by altered sensitivity to chymotrypsin digestion (RXRα LBD): confirmed
